Measured values reported in patent US8759333B2, “Di-azetidinyl diamide as monoacylglycerol lipase inhibitors” (Janssen Pharmaceutica, NV, priority 2010, dated 2014).
Substitutions are numbered along the chain they refer to.

Experiments:
[1] = test system: CFA-Induced Paw Radiant Heat Hypersensitivity; test: CFA-Induced Paw Radiant Heat Hypersensitivity; type: in vivo; conditions: rat, HPβCD; for Method 2: peak % reversal: individual animal values
Experimental: Each rat was placed in a test chamber on a warm glass surface and allowed to acclimate for approximately 10 min. A radiant thermal stimulus (beam of light) was focused through the glass onto the plantar surface of each hind paw in turn. The thermal stimulus was automatically shut off by a photoelectric relay when the paw was moved or when the cut-off time was reached (20 sec for radiant heat at ˜5 amps). An initial (baseline) response latency to the thermal stimulus was recorded for each animal prior to the injection of complete Freund's adjuvant (CFA). Twenty-four hours following intraplantar CFA injection, the response latency of the animal to the thermal stimulus was re-evaluated and compared to the animal's baseline response time. […] Immediately following the post-CFA latency assessment, the indicated test compound or vehicle was administered orally. Post-compound treatment withdrawal latencies were assessed at fixed time intervals, typically 30, 60, 120, 180, and 300 min.
The percent reversal (% R) of hypersensitivity was calculated in one of two different ways:
1) using group mean values or 2) using individual animal values. More specifically:
Method 1. For all compounds, the % R of hypersensitivity was calculated using the mean value for groups of animals at each time point according to the following formula: % reversal=[(group treatment response−group CFA response)/(group baseline response−group CFA response)]×100 Results were given for the maximum % reversal observed for each compound at any time point tested.
Method 2. For some compounds, the % R of hypersensitivity was calculated separately for each animal according to the following formula: % reversal=[(individual treatment response−individual CFA response)/(individual baseline response−individual CFA response)]×100.
Results are given as a mean of the maximum % reversal values calculated for each individual animal.

MGL = target: T1, MGL (Rattus norvegicus, UniProt Q8R431); test: 2-AG Accumulation Assay in rat brain homogenate; type: biochemical; conditions: percent of vehicle; for activity at 1 µM: compound @1 µM, read-out: Rat Brain 2AG % VehCntrl (%) @1 µM; for activity at 10 µM: compound @10 µM, read-out: Rat Brain 2AG % VehCntrl (%) @10 µM
T1 construct: one g rat brain was homogenized using a Polytron homogenizer; from tissue; host or cells: rat brain homogenate
T1 sequence (Q8R431 1-303): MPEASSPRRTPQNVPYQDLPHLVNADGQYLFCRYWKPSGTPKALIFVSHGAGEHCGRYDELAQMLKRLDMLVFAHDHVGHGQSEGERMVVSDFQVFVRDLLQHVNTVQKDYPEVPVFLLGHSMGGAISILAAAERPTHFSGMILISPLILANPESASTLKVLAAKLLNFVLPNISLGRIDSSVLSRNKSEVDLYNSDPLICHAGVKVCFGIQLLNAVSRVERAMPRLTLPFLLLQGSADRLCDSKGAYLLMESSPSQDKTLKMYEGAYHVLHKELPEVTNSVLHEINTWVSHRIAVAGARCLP

[2] = target: T2, mutant MGL (mut-MGLL 11-313 L179S L186S) (Homo sapiens, UniProt Q99685, L169S/L176S); test: MGL Enzyme Activity Assay, purified mutant MGL, 4MU-B substrate; type: biochemical; conditions: mutant MGL 5 nM, 4MU-B 10 μM, 37° C.; read-out: MGL mutant inh IC50
T2 construct: purified mutant MGL (mut-MGLL 11-313 L179S L186S)
T2 sequence (Q99685 1-303 L169S/L176S): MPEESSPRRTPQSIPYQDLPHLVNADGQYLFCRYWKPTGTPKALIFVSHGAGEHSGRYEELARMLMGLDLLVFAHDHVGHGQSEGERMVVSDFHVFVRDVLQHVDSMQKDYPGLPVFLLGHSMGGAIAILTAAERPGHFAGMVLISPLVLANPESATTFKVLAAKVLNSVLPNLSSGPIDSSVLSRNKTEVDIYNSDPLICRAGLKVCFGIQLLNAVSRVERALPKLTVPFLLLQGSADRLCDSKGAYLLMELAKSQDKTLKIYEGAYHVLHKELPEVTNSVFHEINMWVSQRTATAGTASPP
Procedure, shortened: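 Purified mutant MGL (5 nM final) with 10 μM 4MU-B in 20 mM PIPES pH 7.0, 150 mM NaCl, 0.001% Tween 20; compounds 17 to 0.0003 μM final. Fluorescence (ex 335/em 440 nm) followed 5 min at 37 °C; IC50 from fit of fractional activity versus inhibitor concentration.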

[3] = target: T3, wild type MGL (wt-MGLL 6H-11-313) (Homo sapiens, UniProt Q99685); test: MGL Enzyme Activity Assay, purified wild type MGL, 4MU-B substrate; type: biochemical; conditions: wild type MGL 5 nM, 4MU-B 10 μM, 37° C.; read-out: MGL wild type inh IC50
T3 construct: purified wild type MGL (wt-MGLL 6H-11-313); 6H (hexahistidine) (N)
T3 sequence (Q99685 1-303): T2 sequence (Q99685 1-303 L169S/L176S) with S169L, S176L
Experimental: All rate-based assays were performed in black 384-well polypropylene PCR microplates (Abgene) in a total volume of 30 μL. […] Final compound concentrations ranged from 17 to 0.0003 μM.
The IC50 values for the following compounds were determined using Microsoft Office Excel from a fit of the equation to the concentration-response plot of the fractional activity as a function of inhibitor concentration.

mutant MGL = target: T4, mutant MGL (Homo sapiens, UniProt Q99685, L169S/L176S); test: MGL ThermoFluor Assay - Mutant; type: binding; conditions: 0.07 mg/ml mutant MGL, 100 μM ANS, pH 7.0
T4 construct: purified mutant MGL (mut-MGLL 11-313 L179S L186S)
T4 sequence (Q99685 1-303 L169S/L176S): T2 sequence (Q99685 1-303 L169S/L176S)
Procedure, shortened: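 Thermal-shift binding with 0.07 mg/ml L169S/L176S mutant MGL, 100 μM 1,8-ANS, 200 mM NaCl, 0.001% Tween-20, 50 mM PIPES pH 7.0, heated 40–90 °C at 1 °C/min.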

[4] = po, 5 h, 30 mg/kg p.o., group mean values, last time point 300 min (180 min for Cpd 17, 77), read-out: Method 1: peak % reversal
[5] = 30 mg/kg p.o., last time point 300 min (180 min for Cpd 17, 77)

O=C(NC1CN(C2CN(C(=O)c3ccc4c(ccn4-c4ccc(C(F)(F)F)cc4)c3)C2)C1)c1nccs1 [Cpd 1, N-[1′-({1-[4-(Trifluoromethyl)phenyl]-1H-indol-5-yl}carbonyl)-1,3′-biazetidin-3-yl]-1,3-thiazole-2-carboxamide]
inhibition in vivo at 10 mg/kg ([1]; po, 5 h, 10 mg/kg p.o., group mean values, last time point 300 min, read-out: Method 1: peak % reversal): -18.6%
inhibition in vivo at 30 mg/kg [1, 4]: 10.3%
Method 2: peak % reversal ([1]; 10 mg/kg p.o., last time point 300 min): −19.0%
Method 2: peak % reversal [1, 5]: 7.4%
activity at 1 µM (MGL): 370%
activity at 10 µM (MGL): 639%
IC50 [2]: 5 nM
IC50 [3]: < 5 nM
Kd (mutant MGL): 6 nM

O=C(NC1CN(C2CN(C(=O)c3ccc(-c4cccc(C(F)(F)F)c4)cc3)C2)C1)c1cscn1 [Cpd 2, N-(1′-{[3′-(Trifluoromethyl)biphenyl-4-yl]carbonyl}-1,3′-biazetidin-3-yl)-1,3-thiazole-4-carboxamide]
inhibition in vivo at 30 mg/kg [1, 4]: 47.9%
activity at 1 µM (MGL): 620%
IC50 [2]: 6 nM
IC50 [3]: 8 nM
Kd (mutant MGL): 22 nM

O=C(NC1CN(C2CN(C(=O)c3ccc(-c4cccc(C(F)(F)F)c4)cc3)C2)C1)c1nccs1 [Cpd 5, N-(1′-{[3′-(Trifluoromethyl)biphenyl-4-yl]carbonyl}-1,3′-biazetidin-3-yl)-1,3-thiazole-2-carboxamide]
inhibition in vivo at 30 mg/kg [1, 4]: 57.4%
Method 2: peak % reversal [1, 5]: 55.8%
activity at 1 µM (MGL): 347%
activity at 10 µM (MGL): 921%
IC50 [2]: 7 nM
IC50 [3]: 15 nM
Kd (mutant MGL): 11.2 nM

O=C(NC1CN(C2CN(C(=O)c3sc4cc(C(F)(F)F)ccc4c3Cl)C2)C1)c1nccs1 [Cpd 50, N-(1′-{[3-Chloro-6-(trifluoromethyl)-1-benzothiophen-2-yl]carbonyl}-1,3′-biazetidin-3-yl)-1,3-thiazole-2-carboxamide]
activity at 1 µM (MGL): 460%
IC50 [2]: < 5 nM
IC50 [3]: < 5 nM
Kd (mutant MGL): 0.7 nM

O=C(NC1CN(C2CN(C(=O)c3sc4cc(C(F)(F)F)ccc4c3Cl)C2)C1)c1cscn1 [Cpd 51, N-(1′-{[3-Chloro-6-(trifluoromethyl)-1-benzothiophen-2-yl]carbonyl}-1,3′-biazetidin-3-yl)-1,3-thiazole-4-carboxamide]
activity at 1 µM (MGL): 477%
IC50 [2]: < 5 nM
IC50 [3]: < 5 nM
Kd (mutant MGL): 2.2 nM

O=C(NC1CN(C2CN(C(=O)c3ccc4c(cnn4-c4ccccc4)c3)C2)C1)c1nccs1 [Cpd 52, N-{1′-[(1-Phenyl-1H-indazol-5-yl)carbonyl]-1,3′-biazetidin-3-yl}-1,3-thiazole-2-carboxamide]
activity at 1 µM (MGL): 291%
IC50 [2]: < 5 nM
IC50 [3]: < 5 nM
Kd (mutant MGL): 73.4 nM

Cc1c(C(=O)N2CC(N3CC(NC(=O)c4nccs4)C3)C2)sc2cc(C(F)(F)F)ccc12 [Cpd 56, N-(1′-{[3-Methyl-6-(trifluoromethyl)-1-benzothiophen-2-yl]carbonyl}-1,3′-biazetidin-3-yl)-1,3-thiazole-2-carboxamide]
inhibition in vivo at 30 mg/kg [1, 4]: -1.3%
activity at 1 µM (MGL): 413%
IC50 [3]: 6 nM
Kd (mutant MGL): 2.15 nM

Cc1c(C(=O)N2CC(N3CC(NC(=O)c4cscn4)C3)C2)sc2cc(C(F)(F)F)ccc12 [Cpd 67, N-(1′-{[3-Methyl-6-(trifluoromethyl)-1-benzothiophen-2-yl]carbonyl}-1,3′-biazetidin-3-yl)-1,3-thiazole-4-carboxamide]
inhibition in vivo at 30 mg/kg [1, 4]: 35.7%
activity at 1 µM (MGL): 434%
IC50 [3]: < 5 nM
Kd (mutant MGL): 10.7 nM

O=C(c1sc2cc(-c3ccccc3)ccc2c1Cl)N1CC(N2CC(N3Cc4ccccc4C3=O)C2)C1 [Cpd 68, 2-{1′-[(3-Chloro-6-phenyl-1-benzothiophen-2-yl)carbonyl]-1,3′-biazetidin-3-yl}-2,3-dihydro-1H-isoindol-1-one]
activity at 1 µM (MGL): 433%
IC50 [2]: 6 nM
IC50 [3]: < 5 nM
Kd (mutant MGL): 3.3 nM

CS(=O)(=O)c1cccc(-c2ccc3cc(C(=O)N4CC(N5CC(N6Cc7ccccc7C6=O)C5)C4)sc3c2)c1 [Cpd 72, 2-[1′-({6-[3-(Methylsulfonyl)phenyl]-1-benzothiophen-2-yl}carbonyl)-1,3′-biazetidin-3-yl]-2,3-dihydro-1H-isoindol-1-one]
activity at 1 µM (MGL): 781%
IC50 [2]: 9 nM
IC50 [3]: < 5 nM
Kd (mutant MGL): 33.2 nM

O=C(c1sc2cc(Br)ccc2c1Cl)N1CC(N2CC(N3Cc4ccccc4C3=O)C2)C1 [Cpd 73, 2-{1′-[(6-Bromo-3-chloro-1-benzothiophen-2-yl)carbonyl]-1,3′-biazetidin-3-yl}-2,3-dihydro-1H-isoindol-1-one]
activity at 1 µM (MGL): 295%
IC50 [2]: 12 nM
IC50 [3]: < 5 nM
Kd (mutant MGL): 31.3 nM

O=C(c1sc2cc(-c3ccccc3)ccc2c1-c1ccccc1)N1CC(N2CC(N3Cc4ccccc4C3=O)C2)C1 [Cpd 74, 2-{1′-[(3,6-Diphenyl-1-benzothiophen-2-yl)carbonyl]-1,3′-biazetidin-3-yl}-2,3-dihydro-1H-isoindol-1-one]
activity at 1 µM (MGL): 323%
IC50 [2]: 12 nM
IC50 [3]: < 5 nM
Kd (mutant MGL): 1.3 nM

CS(=O)(=O)c1cccc(-c2ccc3sc(C(=O)N4CC(N5CC(N6Cc7ccccc7C6=O)C5)C4)cc3c2)c1 [Cpd 82, 2-[1′-({5-[3-(Methylsulfonyl)phenyl]-1-benzothiophen-2-yl}carbonyl)-1,3′-biazetidin-3-yl]-2,3-dihydro-1H-isoindol-1-one]
activity at 1 µM (MGL): 490%
IC50 [2]: 22 nM
IC50 [3]: 16 nM
Kd (mutant MGL): 105 nM

Cc1c(C(=O)N2CC(N3CC(N4Cc5ccccc5C4=O)C3)C2)sc2cc(C(F)(F)F)ccc12 [Cpd 101, 2-(1′-{[3-Methyl-6-(trifluoromethyl)-1-benzothiophen-2-yl]carbonyl}-1,3′-biazetidin-3-yl)-2,3-dihydro-1H-isoindol-1-one]
inhibition in vivo at 30 mg/kg [1, 4]: 6.1%
activity at 1 µM (MGL): 534%
IC50 [3]: 6 nM
Kd (mutant MGL): 4 nM
